Assay: mn = molality of the nth substance listed, in mol/kg
Conditions: 101 kPa, Liquid; for speed of sound: Linear variable-path acoustic interferometer; for mass density: Pycnometric method; for viscosity: Capillary tube (Ostwald / Ubbelohde) method

O=[N+]([O-])[O-].O=[N+]([O-])[O-].[Mg+2] [magnesium nitrate] + O
Conditions | mass density [kg/m3] | speed of sound [m/s] | viscosity [mPa·s]
293.15 K, m1 = 2.131 | – | 1656.3 | –
293.15 K, m1 = 2.493 | – | 1682.1 | –
293.15 K, m1 = 2.793 | – | 1705.3 | –
293.15 K, m1 = 3.118 | – | 1728.1 | –
293.15 K, m1 = 3.17 | – | 1736.5 | –
293.15 K, m1 = 3.501 | – | 1755.4 | –
293.15 K, m1 = 3.757 | – | 1771.3 | –
293.15 K, m1 = 4.051 | – | 1787.5 | –
293.15 K, m1 = 4.285 | – | 1802.4 | –
293.15 K, m1 = 4.403 | – | 1809.3 | –
293.15 K, m1 = 4.883 | – | 1838.8 | –
295.75 K, m1 = 0.3405 | 1032.9 | – | –
296 K, m1 = 5.134 | 1404.4 | – | –
297.5 K, m1 = 3.501 | 1299.9 | – | –
297.65 K, m1 = 0.5931 | 1057.4 | – | –
297.85 K, m1 = 4.285 | 1350.5 | – | –
297.9 K, m1 = 3.17 | 1281.3 | – | –
298.1 K, m1 = 2.493 | 1225.2 | – | –
298.15 K, m1 = 0.0145 | – | 1498.3 | 0.9075
298.15 K, m1 = 0.0528 | – | 1500.5 | 0.9227
298.15 K, m1 = 0.2491 | – | 1514.9 | 0.9713
298.15 K, m1 = 0.3405 | – | 1519 | –
298.15 K, m1 = 0.5931 | – | – | 1.079
298.15 K, m1 = 0.6173 | – | 1540.9 | –
298.15 K, m1 = 0.896 | – | 1563 | –
298.15 K, m1 = 0.9898 | – | 1570.8 | 1.232
298.15 K, m1 = 1.262 | – | 1590 | 1.366
298.15 K, m1 = 1.525 | – | 1611.1 | –
298.15 K, m1 = 1.827 | – | 1637.3 | 1.662
298.15 K, m1 = 2.131 | – | 1660.5 | 1.842
298.15 K, m1 = 2.493 | – | 1685.3 | –
298.15 K, m1 = 2.584 | – | – | 2.206
298.15 K, m1 = 2.793 | – | 1706.5 | –
298.15 K, m1 = 3.096 | – | – | 2.665
298.15 K, m1 = 3.118 | – | 1728.8 | –
298.15 K, m1 = 3.17 | – | 1736.6 | –
298.15 K, m1 = 3.329 | – | – | 2.921
298.15 K, m1 = 3.501 | – | 1754.6 | –
298.15 K, m1 = 3.704 | – | – | 3.367
298.15 K, m1 = 3.757 | – | 1774.2 | –
298.15 K, m1 = 4.039 | – | – | 3.889
298.15 K, m1 = 4.051 | – | 1786.2 | –
298.15 K, m1 = 4.285 | – | 1800.3 | –
298.15 K, m1 = 4.403 | – | 1806.6 | –
298.15 K, m1 = 4.728 | – | – | 5.349
298.15 K, m1 = 4.883 | – | 1831.8 | –
298.15 K, m1 = 4.907 | – | – | 5.933
298.15 K, m1 = 5.134 | – | 1855.2 | –
298.15 K, m1 = 5.282 | – | – | 7.034
298.2 K, m1 = 5.134 | 1402.9 | – | –
298.5 K, m1 = 4.051 | 1333.6 | – | –
299.15 K, m1 = 0.0145 | 998.05 | – | –
299.35 K, m1 = 0.0528 | 1002.2 | – | –
299.6 K, m1 = 0.3405 | 1031.8 | – | –
299.75 K, m1 = 2.131 | 1196.1 | – | –
299.8 K, m1 = 3.501 | 1298.5 | – | –
299.95 K, m1 = 4.728 | 1377.8 | – | –
300.1 K, m1 = 3.17 | 1280 | – | –
300.15 K, m1 = 4.883 | 1384.4 | – | –
300.3 K, m1 = 4.285 | 1349 | – | –
300.35 K, m1 = 2.493 | 1223.9 | – | –
300.5 K, m1 = 0.9898 | 1095.4 | – | –
300.5 K, m1 = 5.134 | 1401.4 | – | –
300.75 K, m1 = 2.584 | 1232 | – | –
300.75 K, m1 = 4.039 | 1332.1 | – | –
300.85 K, m1 = 4.051 | 1332.2 | – | –
300.9 K, m1 = 0.896 | 1085.9 | – | –
300.95 K, m1 = 0.5931 | 1056.2 | – | –
300.95 K, m1 = 1.262 | 1119.4 | – | –
300.95 K, m1 = 2.793 | 1247.4 | – | –
301 K, m1 = 4.97 | 1390.1 | – | –
301.05 K, m1 = 3.704 | 1311.3 | – | –
301.1 K, m1 = 1.525 | 1142.4 | – | –
301.25 K, m1 = 4.403 | 1355.4 | – | –
301.6 K, m1 = 0.2491 | 1022.3 | – | –
302.1 K, m1 = 3.096 | 1269.1 | – | –
302.1 K, m1 = 3.501 | 1297.2 | – | –
302.25 K, m1 = 2.131 | 1194.8 | – | –
302.25 K, m1 = 3.17 | 1278.7 | – | –
302.3 K, m1 = 4.728 | 1376.3 | – | –
302.4 K, m1 = 4.285 | 1347.6 | – | –
302.55 K, m1 = 0.3405 | 1030.8 | – | –
302.55 K, m1 = 2.493 | 1222.7 | – | –
302.6 K, m1 = 1.827 | 1169.5 | – | –
302.6 K, m1 = 4.883 | 1382.9 | – | –
302.95 K, m1 = 4.039 | 1330.8 | – | –
302.95 K, m1 = 5.134 | 1399.9 | – | –
303.05 K, m1 = 0.0145 | 996.95 | – | –
303.1 K, m1 = 1.694 | 1156.4 | – | –
303.1 K, m1 = 2.584 | 1230.7 | – | –
303.1 K, m1 = 2.793 | 1246.1 | – | –
303.15 K, m1 = 0.0145 | – | 1509.5 | 0.8115
303.15 K, m1 = 0.0528 | – | 1511.9 | 0.825
303.15 K, m1 = 0.2491 | – | 1526.5 | 0.8716
303.15 K, m1 = 0.3405 | – | 1529.9 | –
303.15 K, m1 = 0.5931 | – | – | 0.9679
303.15 K, m1 = 0.6173 | – | 1550.7 | –
303.15 K, m1 = 0.896 | – | 1571.2 | –
303.15 K, m1 = 0.9898 | – | 1578.7 | 1.112
303.15 K, m1 = 1.262 | – | 1596.4 | 1.228
303.15 K, m1 = 1.525 | – | 1617 | –
303.15 K, m1 = 1.827 | – | 1641 | 1.493
303.15 K, m1 = 2.131 | – | 1663.8 | 1.654
303.15 K, m1 = 2.493 | – | 1686.8 | –
303.15 K, m1 = 2.584 | – | – | 1.969
303.15 K, m1 = 2.793 | – | 1708.1 | –
303.15 K, m1 = 3.096 | – | – | 2.38
303.15 K, m1 = 3.118 | – | 1729.1 | –
303.15 K, m1 = 3.17 | – | 1736.9 | –
303.15 K, m1 = 3.329 | – | – | 2.611
303.15 K, m1 = 3.501 | – | 1753.9 | –
303.15 K, m1 = 3.704 | – | – | 2.998
303.15 K, m1 = 3.757 | – | 1772.5 | –
303.15 K, m1 = 4.039 | – | – | 3.462
303.15 K, m1 = 4.051 | – | 1783.6 | –
303.15 K, m1 = 4.285 | – | 1797.4 | –
303.15 K, m1 = 4.403 | – | 1804.5 | –
303.15 K, m1 = 4.728 | – | – | 4.73
303.15 K, m1 = 4.883 | – | 1830.6 | –
303.15 K, m1 = 4.907 | – | – | 5.225
303.15 K, m1 = 4.97 | 1388.7 | – | –
303.15 K, m1 = 5.134 | – | 1842.9 | –
303.15 K, m1 = 5.282 | – | – | 6.141
303.25 K, m1 = 0.0528 | 1001.1 | – | –
303.3 K, m1 = 3.704 | 1309.8 | – | –
303.5 K, m1 = 1.525 | 1141.2 | – | –
303.5 K, m1 = 4.403 | 1353.9 | – | –
303.55 K, m1 = 1.262 | 1118.2 | – | –
303.85 K, m1 = 0.5931 | 1055.1 | – | –
303.9 K, m1 = 0.896 | 1084.7 | – | –
304.15 K, m1 = 0.6173 | 1057.7 | – | –
304.25 K, m1 = 3.096 | 1267.7 | – | –
304.35 K, m1 = 3.501 | 1295.8 | – | –
304.35 K, m1 = 3.757 | 1312.3 | – | –
304.55 K, m1 = 2.131 | 1193.6 | – | –
304.55 K, m1 = 3.118 | 1268.5 | – | –
304.55 K, m1 = 4.285 | 1346.2 | – | –
304.55 K, m1 = 4.728 | 1374.9 | – | –
304.8 K, m1 = 4.883 | 1381.4 | – | –
305 K, m1 = 0.2491 | 1021.1 | – | –
305 K, m1 = 1.827 | 1168.3 | – | –
305.05 K, m1 = 2.493 | 1221.3 | – | –
305.2 K, m1 = 4.051 | 1329.4 | – | –
305.25 K, m1 = 4.039 | 1329.3 | – | –
305.3 K, m1 = 1.694 | 1155.3 | – | –
305.35 K, m1 = 2.584 | 1229.4 | – | –
305.5 K, m1 = 2.793 | 1244.7 | – | –
305.55 K, m1 = 3.704 | 1308.4 | – | –
305.8 K, m1 = 0.9898 | 1093 | – | –
305.85 K, m1 = 0.3405 | 1029.6 | – | –
305.95 K, m1 = 1.525 | 1139.9 | – | –
